Results: US20230049952A1, “METHODS AND COMPOUNDS FOR RESTORING MUTANT P53 FUNCTION” (PMV Pharmaceuticals, Inc., priority 2020, published 2023)

Test system: p53 signaling pathway in MT373 tumors
Assay: MT373 syngeneic sarcoma model: mouse p53 signaling pathway profiling panel
Assay type: in vivo

Structure (SMILES): CCn1c(C#CCNc2ccccc2)cc2cc(CNC3CCN(C)CC3)ccc21 [Compound 1, 1-Anilino-3-{1-ethyl-5-[(1-methyl-4-piperidylamino)methyl]-1H-indol-2-yl}-2-propyne]
- Sirt1 fold increase or percent reduction vs vehicle control (150 mg/kg BIDx1, 48 h): 13.36 fold or %
- Stat1 fold increase or percent reduction vs vehicle control (150 mg/kg BIDx1, 48 h): 1.72 fold or %
- Tnf fold increase or percent reduction vs vehicle control (150 mg/kg BIDx1, 48 h): 27.80 fold or %
- Traf1 fold increase or percent reduction vs vehicle control (150 mg/kg BIDx1, 48 h): 1.04 fold or %
- Trp53bp2 fold increase or percent reduction vs vehicle control (150 mg/kg BIDx1, 48 h): 8.14 fold or %
- Trp53 fold increase or percent reduction vs vehicle control (150 mg/kg BIDx1, 48 h): 22.40 fold or %
- Apex1 fold increase or percent reduction vs vehicle control (150 mg/kg BIDx1, 72 h): 15.68 fold or %
- Atm fold increase or percent reduction vs vehicle control (150 mg/kg BIDx1, 72 h): 18.10 fold or %
- Atr fold increase or percent reduction vs vehicle control (150 mg/kg BIDx1, 72 h): 1.15 fold or %
- Bag1 fold increase or percent reduction vs vehicle control (150 mg/kg BIDx1, 72 h): 21.87 fold or %
- Bax fold increase or percent reduction vs vehicle control (150 mg/kg BIDx1, 72 h): 21.38 fold or %
- Bbc3 fold increase or percent reduction vs vehicle control (150 mg/kg BIDx1, 72 h): 1.10 fold or %
- Bcl2 fold increase or percent reduction vs vehicle control (150 mg/kg BIDx1, 72 h): 6.74 fold or %
- Bid fold increase or percent reduction vs vehicle control (150 mg/kg BIDx1, 72 h): 2.75 fold or %
- Birc5 fold increase or percent reduction vs vehicle control (150 mg/kg BIDx1, 72 h): 24.85 fold or %
- Brca1 fold increase or percent reduction vs vehicle control (150 mg/kg BIDx1, 72 h): 17.44 fold or %
- Brca2 fold increase or percent reduction vs vehicle control (150 mg/kg BIDx1, 72 h): 19.53 fold or %
- Btg2 fold increase or percent reduction vs vehicle control (150 mg/kg BIDx1, 72 h): 23.10 fold or %
- Casp2 fold increase or percent reduction vs vehicle control (150 mg/kg BIDx1, 72 h): 8.98 fold or %
- Ccnb1 fold increase or percent reduction vs vehicle control (150 mg/kg BIDx1, 72 h): 18.77 fold or %
- Ccne1 fold increase or percent reduction vs vehicle control (150 mg/kg BIDx1, 72 h): 1.04 fold or %
- Ccng1 fold increase or percent reduction vs vehicle control (150 mg/kg BIDx1, 72 h): 11.26 fold or %
- Ccnh fold increase or percent reduction vs vehicle control (150 mg/kg BIDx1, 72 h): 5.78 fold or %
- Cdc25a fold increase or percent reduction vs vehicle control (150 mg/kg BIDx1, 72 h): 1.65 fold or %
- Cdk1 fold increase or percent reduction vs vehicle control (150 mg/kg BIDx1, 72 h): 22.76 fold or %
- Cdk4 fold increase or percent reduction vs vehicle control (150 mg/kg BIDx1, 72 h): 19.73 fold or %
- Cdkn1a fold increase or percent reduction vs vehicle control (150 mg/kg BIDx1, 72 h): 13.49 fold or %
- Cdkn2a fold increase or percent reduction vs vehicle control (150 mg/kg BIDx1, 72 h): 20.75 fold or %
- Chek1 fold increase or percent reduction vs vehicle control (150 mg/kg BIDx1, 72 h): 17.70 fold or %
- Cradd fold increase or percent reduction vs vehicle control (150 mg/kg BIDx1, 72 h): 16.72 fold or %
- Cul9 fold increase or percent reduction vs vehicle control (150 mg/kg BIDx1, 72 h): 1.54 fold or %
- Dapk1 fold increase or percent reduction vs vehicle control (150 mg/kg BIDx1, 72 h): 1.39 fold or %
- Dnmt1 fold increase or percent reduction vs vehicle control (150 mg/kg BIDx1, 72 h): 1.03 fold or %
- E2f1 fold increase or percent reduction vs vehicle control (150 mg/kg BIDx1, 72 h): 1.10 fold or %
- E2f3 fold increase or percent reduction vs vehicle control (150 mg/kg BIDx1, 72 h): 17.09 fold or %
- Egfr fold increase or percent reduction vs vehicle control (150 mg/kg BIDx1, 72 h): 13.15 fold or %
- Egr1 fold increase or percent reduction vs vehicle control (150 mg/kg BIDx1, 72 h): 38.21 fold or %
- Ep300 fold increase or percent reduction vs vehicle control (150 mg/kg BIDx1, 72 h): 2.74 fold or %
- Ercc1 fold increase or percent reduction vs vehicle control (150 mg/kg BIDx1, 72 h): 20.27 fold or %
- Esr1 fold increase or percent reduction vs vehicle control (150 mg/kg BIDx1, 72 h): 1.82 fold or %
- Fadd fold increase or percent reduction vs vehicle control (150 mg/kg BIDx1, 72 h): 1.18 fold or %
- Fas fold increase or percent reduction vs vehicle control (150 mg/kg BIDx1, 72 h): 12.10 fold or %
- Fasl fold increase or percent reduction vs vehicle control (150 mg/kg BIDx1, 72 h): 1.29 fold or %
- Foxo3 fold increase or percent reduction vs vehicle control (150 mg/kg BIDx1, 72 h): 1.08 fold or %
- Gadd45a fold increase or percent reduction vs vehicle control (150 mg/kg BIDx1, 72 h): 12.31 fold or %
- Hif1a fold increase or percent reduction vs vehicle control (150 mg/kg BIDx1, 72 h): 1.18 fold or %
- Il6 fold increase or percent reduction vs vehicle control (150 mg/kg BIDx1, 72 h): 61.14 fold or %
- Jun fold increase or percent reduction vs vehicle control (150 mg/kg BIDx1, 72 h): 20.41 fold or %
- Kras fold increase or percent reduction vs vehicle control (150 mg/kg BIDx1, 72 h): 1.08 fold or %
- Lig4 fold increase or percent reduction vs vehicle control (150 mg/kg BIDx1, 72 h): 1.27 fold or %
- Mdm2 fold increase or percent reduction vs vehicle control (150 mg/kg BIDx1, 72 h): 1.10 fold or %
- Mdm4 fold increase or percent reduction vs vehicle control (150 mg/kg BIDx1, 72 h): 13.89 fold or %
- Mel1 fold increase or percent reduction vs vehicle control (150 mg/kg BIDx1, 72 h): 17.68 fold or %
- Mlh1 fold increase or percent reduction vs vehicle control (150 mg/kg BIDx1, 72 h): 1.52 fold or %
- Msh2 fold increase or percent reduction vs vehicle control (150 mg/kg BIDx1, 72 h): 4.98 fold or %
- Myod1 fold increase or percent reduction vs vehicle control (150 mg/kg BIDx1, 72 h): 3.03 fold or %
- Nf1 fold increase or percent reduction vs vehicle control (150 mg/kg BIDx1, 72 h): 12.40 fold or %
- Nfkb1 fold increase or percent reduction vs vehicle control (150 mg/kg BIDx1, 72 h): 1.15 fold or %
- Pcna fold increase or percent reduction vs vehicle control (150 mg/kg BIDx1, 72 h): 21.44 fold or %
- Pmaip1 fold increase or percent reduction vs vehicle control (150 mg/kg BIDx1, 72 h): 1.41 fold or %
- Ppm1d fold increase or percent reduction vs vehicle control (150 mg/kg BIDx1, 72 h): 0.20 fold or %
- Prkca fold increase or percent reduction vs vehicle control (150 mg/kg BIDx1, 72 h): 4.15 fold or %
- Pten fold increase or percent reduction vs vehicle control (150 mg/kg BIDx1, 72 h): 1.14 fold or %
- Pttg1 fold increase or percent reduction vs vehicle control (150 mg/kg BIDx1, 72 h): 1.19 fold or %
- Rb1 fold increase or percent reduction vs vehicle control (150 mg/kg BIDx1, 72 h): 3.47 fold or %
- Rela fold increase or percent reduction vs vehicle control (150 mg/kg BIDx1, 72 h): 2.50 fold or %
- Rprm fold increase or percent reduction vs vehicle control (150 mg/kg BIDx1, 72 h): 1.51 fold or %
- Serpinb5 fold increase or percent reduction vs vehicle control (150 mg/kg BIDx1, 72 h): 1.00 fold or %
- Sesn2 fold increase or percent reduction vs vehicle control (150 mg/kg BIDx1, 72 h): 1.31 fold or %
- Sfn fold increase or percent reduction vs vehicle control (150 mg/kg BIDx1, 72 h): 7.33 fold or %
- Sirt1 fold increase or percent reduction vs vehicle control (150 mg/kg BIDx1, 72 h): 1.08 fold or %
- Stat1 fold increase or percent reduction vs vehicle control (150 mg/kg BIDx1, 72 h): 1.78 fold or %
- Tnf fold increase or percent reduction vs vehicle control (150 mg/kg BIDx1, 72 h): 1.15 fold or %
- Traf1 fold increase or percent reduction vs vehicle control (150 mg/kg BIDx1, 72 h): 1.41 fold or %
- Trp53bp2 fold increase or percent reduction vs vehicle control (150 mg/kg BIDx1, 72 h): 1.07 fold or %
- Trp53 fold increase or percent reduction vs vehicle control (150 mg/kg BIDx1, 72 h): 1.21 fold or %
- Bbc3 mRNA increase (150 mg/kg BID×1, 24 h): 2.27 fold
- Birc5 mRNA decrease (150 mg/kg BID×1, 24 h): 53.57%
- Ccng1 mRNA increase (150 mg/kg BID×1, 24 h): 6.84 fold
- Cdc25c mRNA decrease (150 mg/kg BID×1, 24 h): 41.75%
- Cdk1 mRNA decrease (150 mg/kg BID×1, 24 h): 64.58%
- Cdkn1a mRNA increase (150 mg/kg BID×1, 24 h): 10.93 fold
- Chek1 mRNA decrease (150 mg/kg BID×1, 24 h): 58.77%
- Egfr mRNA change (150 mg/kg BID×1, 24 h): 47.37%
